Reference: patent EP0823908B1, “PYRIDO[2,3-d]PYRIMIDINES FOR INHIBITING PROTEIN TYROSINE KINASE MEDIATED [sequence] PROLIFERATION” (Warner-Lambert Company LLC, priority 1995, dated 1996)

Assays:
C-src kinase = target: T1, C-src kinase (Homo sapiens, UniProt P12931); test: C-src kinase assay (poly GluTyr substrate); assay type: biochemical; settings: read-out: C-src TK IC50
T1 construct: made in house; host or cells: baculovirus infected insect cells

HCT-8 = test: Soft agar colony formation, human colon adenocarcinoma cells; assay type: cell-based; settings: HCT-8, 336 h, read-out: Inhibition of Human Colon Adenocarcinoma IC50, HCT-8
Experimental: (§1) Three such human cell lines were identified as HCT-8, SW-620, and HT-29. In a typical assay, the cells are suspended in 0.3% soft agar containing an invention compound at various concentration levels, and are plated into six-well plates, each plate containing a 1% agar plug. The cell plates are incubated at 37°C in a humidified carbon dioxide (5%) incubator, generally for 2 weeks. At the end of the incubation period, colonies of cells are detected by staining the wells with 1 mg/mL of p-iodonitrotetrazolium violet. The cells are counted on an optical colony counter. […] TABLE III. Inhibition of Human Colon Adenocarcinoma IC50 (µM)

HT-29 = test: as above; assay type: cell-based; settings: HT-29, 336 h, read-out: Inhibition of Human Colon Adenocarcinoma IC50, HT-29
Experimental: as §1

SW-620 = test: as above; assay type: cell-based; settings: SW-620, 336 h, read-out: Inhibition of Human Colon Adenocarcinoma IC50, SW-620
Experimental: as §1

transplanted tumors = test: Transplanted tumor assay; assay type: in vivo; settings: F1 hybrid mice; compound generally by infusion by tail tether
Experimental: F1 hybrid mice were used in the assay. The mice receive ascites fluid or dilutions of tumor brei on Day 0. A sample of the inocula is incubated in thioglycolate media as a check for gross contamination of the tumor material. After all test animals are inoculated with tumors, they are randomized for the assay. Control animals receive vehicle, while treated animals receive an invention compound dissolved in the vehicle, generally by infusion by tail tether. All animals are monitored daily for acute toxicity and other clinical signs. Survival is checked daily for the control group and treated group. The assay generally is continued for 60 days, at which time all surviving animals are euthanized.

T1 sequence (P12931 whole entry): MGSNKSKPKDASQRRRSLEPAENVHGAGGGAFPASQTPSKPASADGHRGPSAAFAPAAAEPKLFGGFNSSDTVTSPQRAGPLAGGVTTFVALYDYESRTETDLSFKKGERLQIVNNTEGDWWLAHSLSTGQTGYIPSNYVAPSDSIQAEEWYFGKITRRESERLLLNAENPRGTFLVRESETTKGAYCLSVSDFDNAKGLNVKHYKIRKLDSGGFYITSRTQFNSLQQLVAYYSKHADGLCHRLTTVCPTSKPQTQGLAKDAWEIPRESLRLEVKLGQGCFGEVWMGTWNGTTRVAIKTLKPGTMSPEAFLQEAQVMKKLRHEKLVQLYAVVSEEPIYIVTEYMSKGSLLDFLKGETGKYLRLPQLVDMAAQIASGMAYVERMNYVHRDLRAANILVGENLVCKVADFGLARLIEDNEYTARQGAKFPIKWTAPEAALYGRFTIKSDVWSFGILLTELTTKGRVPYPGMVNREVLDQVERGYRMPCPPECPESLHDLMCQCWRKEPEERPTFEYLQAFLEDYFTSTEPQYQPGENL

Cn1c(=O)c(-c2c(Cl)cccc2Cl)cc2cnc(Nc3ccccc3)nc21 [Example 54, 6-(2,6-Dichlorophenyl)-8-methyl-2-phenylamino-8H-pyrido[2,3-d]pyrimidin-7-one]
IC50 (C-src kinase): 24 nM | IC50 (HCT-8): 520 nM | IC50 (HT-29): 490 nM | IC50 (SW-620): 140 nM | life span of animals infected with transplanted tumors (transplanted tumors): increased the life span
